In a compilation of properties of binary mixtures (doi:10.1016/j.molliq.2020.113457):

Assay: xn = mol fraction of the nth substance listed
Conditions: 101 kPa

C=CC(=O)OC + CCCC[n+]1ccn(C)c1.F[B-](F)(F)F
Conditions | speed of sound [m/s] | viscosity [mPa·s]
293.15 K, x2 = 0 | 1204.7 | 0.502
293.15 K, x2 = 0.0694 | 1238.9 | 0.966
293.15 K, x2 = 0.1889 | 1296 | 3.853
293.15 K, x2 = 0.239 | 1318.8 | 6.24
293.15 K, x2 = 0.3354 | 1360.5 | 12.75
293.15 K, x2 = 0.4317 | 1399.7 | 21.82
293.15 K, x2 = 0.5005 | 1426 | 29.86
293.15 K, x2 = 0.5693 | 1451 | 39.21
293.15 K, x2 = 0.6532 | 1479.7 | 52.4
293.15 K, x2 = 0.737 | 1506.4 | 67.4
293.15 K, x2 = 0.7927 | 1523 | 78.5
293.15 K, x2 = 0.8484 | 1538.7 | 90.5
298.15 K, x2 = 0.0694 | 1218.7 | 0.725
298.15 K, x2 = 0.1387 | 1252.9 | 1.415
298.15 K, x2 = 0.1889 | 1276.8 | 2.577
298.15 K, x2 = 0.239 | 1300 | 4.295
298.15 K, x2 = 0.3354 | 1342.7 | 9.16
298.15 K, x2 = 0.4317 | 1382.7 | 16.07
298.15 K, x2 = 0.5005 | 1409.6 | 22.26
298.15 K, x2 = 0.5693 | 1435.3 | 29.5
298.15 K, x2 = 0.6532 | 1464.7 | 39.74
298.15 K, x2 = 0.737 | 1492.2 | 51.5
298.15 K, x2 = 0.7927 | 1509.3 | 60.2
298.15 K, x2 = 0.8484 | 1525.6 | 69.6
298.15 K, x2 = 0.9242 | 1546.4 | 83.5
303.15 K, x2 = 0 | 1162.3 | 0.428
303.15 K, x2 = 0.0694 | 1198.4 | 0.555
303.15 K, x2 = 0.1387 | 1233.4 | –
303.15 K, x2 = 0.1889 | 1257.7 | 1.493
303.15 K, x2 = 0.239 | 1281.1 | 2.654
303.15 K, x2 = 0.5005 | 1393.8 | 16.05
303.15 K, x2 = 0.5693 | 1420.5 | 21.63
303.15 K, x2 = 0.6532 | 1451.2 | 29.58
303.15 K, x2 = 0.737 | 1479.5 | 38.8
303.15 K, x2 = 0.7927 | 1496.9 | 45.62
303.15 K, x2 = 0.8484 | 1514 | 53
303.15 K, x2 = 0.9242 | 1534.4 | 63.9
308.15 K, x2 = 0 | 1139.1 | 0.392
308.15 K, x2 = 0.0694 | 1176.1 | 0.448
308.15 K, x2 = 0.1387 | 1211.5 | –
308.15 K, x2 = 0.1889 | 1236.2 | –
308.15 K, x2 = 0.239 | 1260.5 | –
308.15 K, x2 = 0.3354 | 1305.3 | 3.796
308.15 K, x2 = 0.4317 | 1347.7 | 7.6
308.15 K, x2 = 0.5005 | 1376.1 | 11.15
308.15 K, x2 = 0.5693 | 1404.1 | 15.41
308.15 K, x2 = 0.6532 | 1435.8 | 21.55
308.15 K, x2 = 0.737 | 1465.1 | 28.73
308.15 K, x2 = 0.7927 | 1483.3 | 34.08
308.15 K, x2 = 0.9242 | 1521 | 48.5
313.15 K, x2 = 0.0694 | 1155.4 | 0.378
313.15 K, x2 = 0.1889 | 1216.6 | –
313.15 K, x2 = 0.3354 | 1286.1 | 2.165
313.15 K, x2 = 0.4317 | 1329.6 | 5.02
313.15 K, x2 = 0.5005 | 1359.4 | 7.79
313.15 K, x2 = 0.5693 | 1388.1 | 11.15
313.15 K, x2 = 0.6532 | 1420.6 | 16.05
313.15 K, x2 = 0.737 | 1452.4 | 21.85
313.15 K, x2 = 0.7927 | 1471.1 | 26.2
313.15 K, x2 = 0.8484 | 1488.1 | 30.93
313.15 K, x2 = 0.9242 | 1510.3 | 38.01
318.15 K, x2 = 0.0694 | 1134.5 | 0.355
318.15 K, x2 = 0.1387 | 1170.8 | –
318.15 K, x2 = 0.1889 | 1195.7 | –
318.15 K, x2 = 0.239 | 1220 | –
318.15 K, x2 = 0.4317 | 1310.6 | 3.27
318.15 K, x2 = 0.5005 | 1341.6 | 5.53
318.15 K, x2 = 0.5693 | 1371.6 | 8.34
318.15 K, x2 = 0.737 | 1437.5 | 17.48
318.15 K, x2 = 0.7927 | 1457.2 | 21.23
318.15 K, x2 = 0.8484 | 1475.3 | 25.34

CCCC[n+]1ccn(C)c1.F[B-](F)(F)F + C=CC(=O)OC
x1 = 1
Conditions | speed of sound [m/s] | viscosity [mPa·s]
293.15 K | 1576.9 | 127.6
298.15 K | 1565.8 | 98.9
308.15 K | 1542.7 | 58.4
318.15 K | 1518 | 38.72
